In US20110071124A1, “Compounds that Inhibit Production of sAPPB and AB and Uses Thereof” (The Trustees of Columbia University in the City of New York, priority 2008, published 2011):

Experiments:
[1] = test system: sAPPβ in Lenti-APPsw infected primary cortical neurons; experiment: sAPPβ IP-Western in Lenti-APPsw infected primary cortical neurons; type: cell-based, mouse; conditions: 20 μM, 24 hours, normalized to APP
Experimental: FIG. 15A-D. LDN-0057228 reduces Aβ40 and sAPPβ in primary neurons. DIV-14 primary cortical neurons from wild-type mice were incubated for 24 hours with primary culture media containing lentivirus harboring APPsw. After infection, neurons were incubated for 48 hours with 1:1 fresh to conditioned media to allow for APP expression. Neurons were then treated with LDN-0057228 at 20 μM for 24 hours in triplicate. A) Media was collected for Aβ40 ELISA. Raw Aβ40 values were normalized to APP to control for variations in lentiviral infection efficiency. B) Cell lysates were probed with 6E10 antibody to visualize the transduced full-length APP. C) sAPPβ from neuron culture media was immunoprecipitated with sβsw antibody and probed with LN27. D) Quantification of sAPPβ, normalized to APP. Data in A) and […]) represent mean+s.d. of 3 wells. Bands from B) and C) were quantified using ImageJ software.
Using this experimental paradigm, LDN-0057228 was tested at 20 μM concentration to confirm the sAPPβ- and Aβ-lowering activity of the compound (FIG. 15). The protocol was modified slightly to allow for 24-hour compound treatment. […]
LDN-0057228 caused a 75% reduction in Aβ40 levels (p<0.05) in primary neurons (FIG. 15A). […] The sAPPβ bands were quantified using ImageJ software and normalized to APP, showing a 40% reduction in sAPPβ (p<0.01) for the treated neurons (FIG. 15D).

[2] = test system: brain total Aβ40; experiment: brain total Aβ40 in Tg2576 mice after intraperitoneal injection; type: in vivo; conditions: 3 mg/kg intraperitoneal, 1 injection per day for 9 days, 12- to 13-month old Tg2576 mice; p value greater than 0.05
Experimental: FIG. 18. CNS-2 reduces brain total Aβ40 in Tg2576 mice. CNS-2 was dissolved in 0.9% normal saline solution with 1.9% DMSO. 12 month old Tg2576 APPsw transgenic mice were treated with 3 mg/kg CNS-2 via intraperitoneal injection at an injection volume of 20 μl per gram. 8 mice per group were treated for 9 days, 1 injection per day. Mice were sacrificed on day 9, 5 hours after the final injection. One hemisphere from each mouse was homogenized, and the homogenate was processed for formic acid extraction of plaque Aβ. After formic acid extraction, total Aβ40 was measured via ELISA kit (BioSource) and normalized to total protein.
A total of 16 mice were treated with either DMSO (n=8) or 3 mg/kg CNS-2 (n=8). The dosage was selected arbitrarily based on compound solubility in 0.9% normal saline. CNS-2 was dissolved in 0.9% normal saline solution with 1.9% final DMSO concentration. 12- to 13-month old Tg2576 mice were treated with DMSO or CNS-2 via intraperitoneal injection for 9 days (1 injection per day) at an injection volume of 20 μl per gram of weight. Mouse weight was monitored daily, and the total injection volume adjusted accordingly over the course of the 9-day treatment. […] Mice were sacrificed on day 9, 5 hours after the final injection. […] Total Aβ40 was determined by Aβ ELISA kit and normalized to total protein (FIG. 18).

Compound | reduction in sAPPβ [1] | reduction of brain total Aβ40 [2]
Fc1ccc(C(OCCN2CCC[C@H]2CNCCc2ccccc2)c2ccc(F)cc2)cc1 [LDN-0057228] | 40% | 
O=C(CCc1ccccc1)NC[C@@H]1CCCN1CCOC(c1ccc(F)cc1)c1ccc(F)cc1 [CNS-2] |  | 30%
